{
  "source": "patent US20030139469A1",
  "about": "“Use of inhibitors of soluble epoxide hydrolase to inhibit vascular smooth muscle cell proliferation” (THE REGENTS OF THE UNIVERSITY OF CALIFORNIA, priority 2002, published 2003)",
  "tested_on": "human VSM cells",
  "test": "LDH release into media",
  "assay_type": "cell-based",
  "details": "PDGF-BB or 10% serum, CDU 10 and 20 μM, FIG. 4b",
  "procedure": "FIG. 4b. Human VSM cells were grown continuously in the presence of either 10% serum or PDGF-BB (30 ng/ml). Upon achieving confluency, the cells were incubated with CDU at the indicated concentrations and LDH release into the media was measured as described in Example 1. Evaluation of Cell Membrane Integrity and Toxicity. To evaluate the toxicity of compounds, as indicated by cellular trypan blue permeability, cells were plated in 35 mm dishes. After two days, the medium in the dish was replaced with fresh medium supplemented with the compound of interest or vehicle. At the indicated time post-treatment, the supernatant was removed and adherent cells were removed using trypsin. After dislodging the adherent cells, the cell suspension was pooled with the supernatant and centrifuged. The resulting cell pellet was resuspended and a trypan blue solution (0.4% in normal saline) was added to the aliquot. After incubating for approximately 5 minutes, the sample was evaluated by light microscopy. To evaluate lactate dehydrogenase (LDH) release, cells were harvested and plated onto 24 well plates and serum starved for one to two days. Test compounds were added and after 65 hours, media was removed for measurement of LDH activity. LDH activity was determined by NADH oxidation using Sigma Tox-7 in vitro toxicology kit and reported as the amount of LDH activity in the media.",
  "data": [
    {"smiles": "CCCCCCCCCCCCNC(=O)NC1CCCCC1", "note": "[CDU, 1-cyclohexyl-3-dodecyl urea]", "values": [
      {"measurement": "LDH appearance in the media", "value": "unchanged"}
    ]}
  ]
}
